Biological target: Human V1b receptor (Homo sapiens (Human), UniProt P47901)
Experiment: Binding Test for V1b Receptor ([3H]AVP, crude membrane preparation of 293FT cells)
Conditions: inhibition of [3H]AVP binding (0.4 to 1 nmol/L), room temperature, 60 minutes
Description: Binding Test for V1b Receptor
Human V1b receptor was transiently expressed in 293FT cells (Invitrogen). The cells were collected and then homogenated in a 15 mmol/L tris-hydrochloric acid buffer (pH 7.4 and containing 2 mmol/L magnesium chloride, 0.3 mmol/L ethylenediaminetetracetic acid, and 1 mmol/L glycol ether diaminetetraacetic acid). The resulting homogenate was centrifuged at 50,000×g at 4° C. for 20 minutes. The precipitate was resuspended in a 75 mmol/L tris-hydrochloric acid buffer (pH 7.4 and containing 12.5 mmol/L magnesium chloride, 0.3 mmol/L ethylenediaminetetracetic acid, 1 mmol/L glycol ether diaminetetraacetic acid, and 250 mmol/L sucrose) to give a crude membrane preparation, which was stored at −80° C. until the binding test was initiated. In the binding test, the crude membrane preparation was diluted with a 50 mmol/L tris-hydrochloric acid buffer (pH 7.4 and containing 10 mmol/L magnesium chloride and 0.1% bovine serum albumin) and mixed with each test compound and [^3H]AVP (final concentration: 0.4 to 1 nmol/L), followed by incubation at room temperature for 60 minutes. The test compound was serially diluted with DMSO so that it would have final concentrations of 0.01 nmol/L to 1 μmol/L at the time of mixing. After the incubation, the mixture was suction filtered through a GF/C filter that was preliminarily impregnated with 0.3% polyethyleneimine. The GF/C filter was dried and after adding a scintillator, the residual radioactivity on the filter was measured using TopCount (PerkinElmer Inc.). The radioactivity in the presence of unlabeled AVP at […] was defined as 0%, and the radioactivity in the absence of unlabeled AVP was defined as 100%. A dose-response curve was plotted from radio activities in the presence of a test compound at various concentrations, and the 50% inhibitory concentration (IC50 value) of the test compound was calculated.

Human V1b receptor, sequence (P47901 whole entry): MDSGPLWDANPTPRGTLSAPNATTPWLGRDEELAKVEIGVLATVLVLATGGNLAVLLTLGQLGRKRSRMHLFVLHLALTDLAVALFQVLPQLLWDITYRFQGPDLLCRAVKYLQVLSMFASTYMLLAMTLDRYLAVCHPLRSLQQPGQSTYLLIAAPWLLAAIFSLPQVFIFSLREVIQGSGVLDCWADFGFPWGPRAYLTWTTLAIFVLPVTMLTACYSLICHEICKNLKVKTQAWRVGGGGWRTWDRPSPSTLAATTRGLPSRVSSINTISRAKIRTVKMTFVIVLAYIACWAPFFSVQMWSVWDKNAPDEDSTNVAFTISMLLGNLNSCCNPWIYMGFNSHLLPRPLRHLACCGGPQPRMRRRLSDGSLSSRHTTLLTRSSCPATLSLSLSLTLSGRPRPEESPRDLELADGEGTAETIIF

Row | Structure (SMILES) | IC50 [µM]
1 | CC(C)(C)NC(=O)Cn1nc(-c2ccc(CCN3CCOCC3)cn2)nc1-c1cccc(Cl)c1 [Example B-11, N-tert-butyl-2-[5-(3-chlorophenyl)-3-{5-[2-(morpholin-4-yl)ethyl]pyridin-2-yl}-1H-1,2,4-triazol-1-yl]acetamide] | 0.0051
2 | CC(C)NC(=O)Cn1nc(-c2ccc(CCN3CCOCC3)cn2)nc1-c1ccc(F)c(Cl)c1 [Example B-12, 2-[5-(3-chloro-4-fluorophenyl)-3-{5-[2-(morpholin-4-yl)ethyl]pyridin-2-yl}-1H-1,2,4-triazol-1-yl]-N-(propan-2-yl)acetamide] | 0.0063
3 | COc1cc(-c2nc(-c3ccc(CCN4CCOCC4)cn3)nn2CC(=O)NC(C)C)ccc1F [Example B-13, 2-[5-(4-fluoro-3-methoxyphenyl)-3-{5-[2-(morpholin-4-yl)ethyl]pyridin-2-yl}-1H-1,2,4-triazol-1-yl]-N-(propan-2-yl)acetamide] | 0.0089
4 | COc1cccc(-c2nc(-c3ccc(CCN4CCOCC4)cn3)nn2CC(=O)NC(C)(C)C)c1 [Example B-14, N-tert-butyl-2-[5-(3-methoxyphenyl)-3-{5-[2-(morpholin-4-yl)ethyl]pyridin-2-yl}-1H-1,2,4-triazol-1-yl]acetamide] | 0.0066
5 | COc1cccc(-c2nc(-c3ccc(CCN4CCOCC4)cn3)nn2CC(=O)NC(C)C)c1 [Example B-15, 2-[5-(3-methoxyphenyl)-3-{5-[2-(morpholin-4-yl)ethyl]pyridin-2-yl}-1H-1,2,4-triazol-1-yl]-N-(propan-2-yl)acetamide] | 0.031
6 | COc1cccc(-c2nc(-c3ccc(CCN4CCOCC4)cc3)nn2CC(=O)NC(C)C)c1 [Example B-16, 2-[5-(3-methoxyphenyl)-3-{4-[2-(morpholin-4-yl)ethyl]phenyl}-1H-1,2,4-triazol-1-yl]-N-(propan-2-yl)acetamide] | 0.0053
7 | COc1cccc(-c2nc(-c3ccc(CCN4C5CCC4COC5)cc3)nn2CC(=O)NC(C)C)c1 [Example B-17, 2-[5-(3-methoxyphenyl)-3-{4-[2-(3-oxa-8-azabicyclo[3.2.1]oct-8-yl)ethyl]phenyl}-1H-1,2,4-triazol-1-yl]-N-(propan-2-yl)acetamide] | 0.0014
8 | COc1cccc(-c2nc(-c3ccc(CCN4CCOCC4)cc3F)nn2CC(=O)NC(C)C)c1 [Example B-18, 2-[3-{2-fluoro-4-[2-(morpholin-4-yl)ethyl]phenyl}-5-(3-methoxyphenyl)-1H-1,2,4-triazol-1-yl]-N-(propan-2-yl)acetamide] | 0.0072
9 | COc1cccc(-c2nc(-c3ccc(CCN4CCOCC4)c(F)c3)nn2CC(=O)NC(C)C)c1 [Example B-19, 2-[3-{3-fluoro-4-[2-(morpholin-4-yl)ethyl]phenyl}-5-(3-methoxyphenyl)-1H-1,2,4-triazol-1-yl]-N-(propan-2-yl)acetamide] | 0.0069
10 | COc1cccc(-c2nc(-c3ccc(CC(C)N4C5CCC4COC5)cc3)nn2CC(=O)NC(C)C)c1 (stereo not shown) [Example B-20, 2-[5-(3-methoxyphenyl)-3-{4-[2-(3-oxa-8-azabicyclo[3.2.1]oct-8-yl)propyl]phenyl}-1H-1,2,4-triazol-1-yl]-N-(propan-2-yl)acetamide] | 0.00043
11 | COc1cccc(-c2nc(-c3ccc(CCN4CCCC4)cc3)nn2CC(=O)NC(C)C)c1 [Example B-21, 2-[5-(3-methoxyphenyl)-3-{4-[2-(pyrrolidin-1-yl)ethyl]phenyl}-1H-1,2,4-triazol-1-yl]-N-(propan-2-yl)acetamide] | 0.01 to 0.1
12 | COc1cccc(-c2nc(-c3ccc(CCN4CC=CCC4)cc3)nn2CC(=O)NC(C)C)c1 [Example B-22, 2-[3-{4-[2-(3,6-dihydropyridin-1(2H)-yl)ethyl]phenyl}-5-(3-methoxyphenyl)-1H-1,2,4-triazol-1-yl]-N-(propan-2-yl)acetamide] | 0.01 to 0.1
13 | COc1cccc(-c2nc(-c3ccc(CCN4CCC(C)CC4)cc3)nn2CC(=O)NC(C)C)c1 [Example B-23, 2-[5-(3-methoxyphenyl)-3-{4-[2-(4-methylpiperidin-1-yl)ethyl]phenyl}-1H-1,2,4-triazol-1-yl]-N-(propan-2-yl)acetamide] | 0.01 to 0.1
14 | COc1cccc(-c2nc(-c3ccc(CCN4CCC(C#N)CC4)cc3)nn2CC(=O)NC(C)C)c1 [Example B-24, 2-[3-{4-[2-(4-cyanopiperidin-1-yl)ethyl]phenyl}-5-(3-methoxyphenyl)-1H-1,2,4-triazol-1-yl]-N-(propan-2-yl)acetamide] | 0.1 to 1
15 | COc1cccc(-c2nc(-c3ccc(CCN4CCCC(OC)C4)cc3)nn2CC(=O)NC(C)C)c1 (stereo not shown) [Example B-25, 2-[5-(3-methoxyphenyl)-3-{4-[2-(3-methoxypiperidin-1-yl)ethyl]phenyl}-1H-1,2,4-triazol-1-yl]-N-(propan-2-yl)acetamide] | 0.01 to 0.1
16 | COc1cccc(-c2nc(-c3ccc(CCN4CCC(N(C)C)CC4)cc3)nn2CC(=O)NC(C)C)c1 [Example B-26, 2-[3-(4-{2-[4-(dimethylamino)piperidin-1-yl]ethyl}phenyl)-5-(3-methoxyphenyl)-1H-1,2,4-triazol-1-yl]-N-(propan-2-yl)acetamide] | 0.1 to 1
17 | COc1cccc(-c2nc(-c3ccc(CCN4CCC5CCCCC5C4)cc3)nn2CC(=O)NC(C)C)c1 (stereo not shown) [Example B-27, 2-[5-(3-methoxyphenyl)-3-{4-[2-(octahydroisoquinolin-2(1H)-yl)ethyl]phenyl}-1H-1,2,4-triazol-1-yl]-N-(propan-2-yl)acetamide] | 0.01 to 0.1
18 | COc1cccc(-c2nc(-c3ccc(CCN4CCSCC4)cc3)nn2CC(=O)NC(C)C)c1 [Example B-28, 2-[5-(3-methoxyphenyl)-3-{4-[2-(thiomorpholin-4-yl)ethyl]phenyl}-1H-1,2,4-triazol-1-yl]-N-(propan-2-yl)acetamide] | < 0.01
19 | COc1cccc(-c2nc(-c3ccc(CCN4C[C@@H](C)O[C@@H](C)C4)cc3)nn2CC(=O)NC(C)C)c1 [Example B-29, 2-[3-(4-{2-[(2R,6S)-2,6-dimethylmorpholin-4-yl]ethyl}phenyl)-5-(3-methoxyphenyl)-1H-1,2,4-triazol-1-yl]-N-(propan-2-yl)acetamide] | 0.01 to 0.1
20 | COc1cccc(-c2nc(-c3ccc(CCN4CCOCC4C)cc3)nn2CC(=O)NC(C)C)c1 (stereo not shown) [Example B-30, 2-[5-(3-methoxyphenyl)-3-{4-[2-(3-methylmorpholin-4-yl)ethyl]phenyl}-1H-1,2,4-triazol-1-yl]-N-(propan-2-yl)acetamide] | 0.01 to 0.1
21 | CCC1COCCN1CCc1ccc(-c2nc(-c3cccc(OC)c3)n(CC(=O)NC(C)C)n2)cc1 (stereo not shown) [Example B-31, 2-[3-{4-[2-(3-ethylmorpholin-4-yl)ethyl]phenyl}-5-(3-methoxyphenyl)-1H-1,2,4-triazol-1-yl]-N-(propan-2-yl)acetamide] | 0.01 to 0.1
22 | COc1cccc(-c2nc(-c3ccc(CCN4CCN(C)CC4)cc3)nn2CC(=O)NC(C)C)c1 [Example B-32, 2-[5-(3-methoxyphenyl)-3-{4-[2-(4-methylpiperazin-1-yl)ethyl]phenyl}-1H-1,2,4-triazol-1-yl]-N-(propan-2-yl)acetamide] | 0.1 to 1
23 | COc1cccc(-c2nc(-c3ccc(CCN4CCN(C(C)=O)CC4)cc3)nn2CC(=O)NC(C)C)c1 [Example B-33, 2-[3-{4-[2-(4-acetylpiperazin-1-yl)ethyl]phenyl}-5-(3-methoxyphenyl)-1H-1,2,4-triazol-1-yl]-N-(propan-2-yl)acetamide] | 0.1 to 1
24 | COc1cccc(-c2nc(-c3ccc(CCN4CCC(C(N)=O)CC4)cc3)nn2CC(=O)NC(C)C)c1 [Example B-34, 1-[2-(4-{5-(3-methoxyphenyl)-1-[2-oxo-2-(propan-2-ylamino)ethyl]-1H-1,2,4-triazol-3-yl}phenyl)ethyl]piperidine-4-carboxamide] | 0.1 to 1
25 | COc1cccc(-c2nc(-c3ccc(CCN4CCC(NC(C)=O)CC4)cc3)nn2CC(=O)NC(C)C)c1 [Example B-35, 2-[3-(4-{2-[4-(acetylamino)piperidin-1-yl]ethyl}phenyl)-5-(3-methoxyphenyl)-1H-1,2,4-triazol-1-yl]-N-(propan-2-yl)acetamide] | 0.1 to 1
26 | COc1cccc(-c2nc(-c3ccc(CCN4CCC(C)(O)CC4)cc3)nn2CC(=O)NC(C)C)c1 [Example B-36, 2-[3-{4-[2-(4-hydroxy-4-methylpiperidin-1-yl)ethyl]phenyl}-5-(3-methoxyphenyl)-1H-1,2,4-triazol-1-yl]-N-(propan-2-yl)acetamide] | 0.01 to 0.1
27 | COc1cccc(-c2nc(-c3ccc(CCN4CC5(CCOCC5)C4)cc3)nn2CC(=O)NC(C)C)c1 [Example B-37, 2-[5-(3-methoxyphenyl)-3-{4-[2-(7-oxa-2-azaspiro[3.5]non-2-yl)ethyl]phenyl}-1H-1,2,4-triazol-1-yl]-N-(propan-2-yl)acetamide] | < 0.01
28 | COc1cccc(-c2nc(-c3ccc(CCN4CCC(C(F)(F)F)CC4)cc3)nn2CC(=O)NC(C)C)c1 [Example B-38, 2-[5-(3-methoxyphenyl)-3-(4-{2-[4-(trifluoromethyl)piperidin-1-yl]ethyl}phenyl)-1H-1,2,4-triazol-1-yl]-N-(propan-2-yl)acetamide] | 0.01 to 0.1

Reference: patent publication US9522914B2, “Azole derivative” (TAISHO PHARMACEUTICAL CO., LTD, priority 2011, dated 2016)
